Measurements as given in US7951232B2, “Surface coating compositions and methods” (Elevance Renewable Sciences, Inc., priority 2006, dated 2011).

Experiments:
[1] = system: Escherichia coli 0157:H7 ATCC 43895; test: MIC and MBC determination in Mueller-Hinton Broth; format: cell-based; conditions: 37±2° C., 20-24 hours
Description: Efficacy of 9-decenoic acid and the methyl ester of 9-decenoic acid against Pseudomonas aeruginosa ATCC 15442, Escherichia coli 0157:H7 ATCC 43895 and Candida albicans ATCC 10231 was measured through the determination of the minimum inhibitory concentration (MIC) and minimum bacteriocidal concentration (MBC) using the procedures in the Federal Register, June 1994 and the present NCCLS M11-A4 protocol.
Stock cultures of each organism were transferred onto Mueller-Hinton Agar (MHA) plates and incubated for 24±2 hours at 37±2° C. On the day of the test, the top of at least three to five well-isolated colonies were transferred via wire loop to a tube containing 4 to 5 ml of Trypticase Soy Broth (TSB). The TSB culture was incubated for 2 to 6 hours and turbidity was adjusted with sterile saline to achieve the turbidity of the 0.5 McFarland Standard.
The concentrated 9-decenoic acid was diluted 1:40 in Mueller-Hinton Broth (MHB) to yield a 2.5% stock solution. The test solution of the methyl ester of 9-decenoic acid was formulated in the same manner. For each organism, 12 dilutions of the 9-decenoic acid and the methyl ester of 9-decenoic acid in MHB were prepared ranging from 0.2500 to 0.0005%. A 2-ml aliquot of appropriately diluted 9-decenoic acid or the methyl ester of 9-decenoic acid solution was placed in each tube. Each tube was inoculated with 0.05 ml of a 1:10 dilution of one challenge organism. Tubes were incubated at 37±2° C. for 20-24 hours and observed for growth or no growth. […] Controls were run for sterility, viability and organism confirmation. It was determined that all cultures were viable and pure.
The MBC was defined as the concentration of 9-decenoic acid or the methyl ester of 9-decenoic acid that completely eradicated viable organisms from the test system.

[2] = system: Trichoderma virens ATCC 9645; test: Dry film preservative test, growth on PDA agar surface; format: cell-based; conditions: 0.5% in PDA agar
Description: (§1) The efficacy of 9-decenoic acid and the methyl ester of 9-decenoic acid as a dry film preservative was determined through the incubation of Trichoderma virens ATCC 9645, Cladosporium cladosporiodes ATCC 16022 and Aureobasidium pullulans ATCC 12536 in the presence of varying concentrations of 9-decenoic acid or the methyl ester of 9-decenoic acid on an agar surface.
(§2) Fungal spores were hydrated overnight in 0.1% Tween 80 and then plated on Potato Dextrose Agar (PDA) and incubated at 25-30° C. for 6 days. The spores were washed from the surface with 5 mls of 0.1% Tween 80 and enumerated.
(§3) PDA plates with prepared according to the manufactures instructions through sterilization. The agar was tempered to approximately 50° C. and filter sterilized 9-decenoic acid was added to achieve concentrations of 0.1, 0.5 and 1.0% in the agar. Additionally, one concentration of the methyl ester of 9-decenoic acid (0.5%) was also prepared. The agar was thoroughly mixed and poured into sterile petri plates and allowed to solidify.
(§4) The agar plates were inoculated with the spore solution to achieve 10^2 spores/plate. The plates were incubated at 25-30° C. in Ziploc bags with a wet paper towel to keep the moisture level high. The plates were examined for growth after 4, 7, 16, 24 and 31 days. The percent coverage of growth on the agar surface was recorded at each sample point.

[3] = system: Aureobasidium pullulans ATCC 12536; test: as above; format: cell-based; conditions: 0.5% in PDA agar
Description: as §1, §2, §3, §4

[4] = system: Cladosporium cladosporiodes ATCC 16022; test: as above; format: cell-based; conditions: 0.5% in PDA agar
Description: as §1, §2, §3, §4

[5] = system: Pseudomonas aeroginosa, ATCC 15442; test: Time-Kill Procedure (ASTM), rate of kill; format: cell-based, Pseudomonas aeruginosa; conditions: all concentrations (0.01, 0.05 and 0.1%), after 10 minutes
Description: (§5) The rate of kill for these organisms upon exposure to 9-decenoic acid was determined using the American Society for Testing and Materials (ASTM) procedure entitled “Standard Test Method for the Assessment of Microbiocidal Activity of Test Materials Using a Time-Kill Procedure”, October 1998. This procedure incorporates the recommendations described in the “Manual of Clinical Microbiology,”5th ed., edited by A. B. Balows et al., ASM, Washington, and is directed by the Federal Register, June 1994.
(§6) Stock cultures were transferred into TSB and incubated for 18-24 hours at 37±2° C. A second transfer was made onto TSA plates and were incubated for 18-24 hours at 37±2° C. The plates were removed from incubation and the bacterial growth washed from the agar surface using Butterfield's Phosphate Buffered Dilution Water (PBDW). The bacterial suspension was adjusted to contain approximately 10^8 Colony Forming Units (CFU)/ml with PBDW using spectrophometric methods extant in the laboratory.
(§7) The concentrated 9-decenoic acid was diluted 1:40 in filter sterilized isopropanol to yield a 2.5% stock solution. Subsequent dilutions to the 9-decenoic acid stock solutions were made with sterile Deionized Water (DI) to achieve concentrations of 0.1%, 0.05%, 0.01%, and 0.001%. The pH was determined for each dilution; pH values ranged from 4.4-4.1. Additionally, the 9-decenoic acid stock solution was adjusted to pH 7 with 1 N NaOH and serially diluted with sterile DI to achieve concentrations of 1.0%, 0.75% and 0.5%.
(§8) Compliant with the ASTM procedure cited, for each challenge microorganism a 9.9 ml aliquot of the prepared 9-decenoic acid suspension was added to a sterile tube. A 0.1 ml aliquot of the standardized inoculum was added to the 9-decenoic acid solution representing the start of the test exposure. The inoculated 9-decenoic acid solution was immediately mixed thoroughly. The inoculated suspension was held at room temperature for 0.5, 2, 5, 7 and 10 minute exposure times for tests run at ˜pH 4. The pH 7 tests were held at room temperature for 0.5 and 2 minutes.
(§9) At each exposure sample time, a 1.0 ml aliquot of the inoculated 9-decenoic acid suspension was transferred to 9.0 ml of D/E Neutralizing Broth. Additional ten-fold serial dilutions were made in PBDW and plated in duplicate on TSA. All plates were incubated for 48 hours at 37±2° C. and visually examined for growth. The plates are enumerated, recorded and log kill determined for each time point.
(§10) The following study controls were conducted: culture purity, neutralizer sterility, initial suspension population, test population, neutralization verification and a negative control using isopropanol. Culture purity was verified by performing a streak plate for isolated colonies on the each culture used. All cultures were determined to be pure based on consistent colony morphology typical for the test organism. The neutralizer sterility was confirmed by no growth in an incubated sample.
(§11) The population of the initial and test culture were determined by serial dilution, plating and enumerating after incubation. The initial suspension were determined to be ≧10^4 CFU/ml. The test culture population was used for calculation of the log reduction achieved at each time point.
(§12) Neutralization effectiveness was verified by a filtration test. For each organism, four tubes were prepared with 9 ml D/E Neutralizing Broth and fewer than 100 CFU/ml of the organism. A 1.0 ml aliquot of prepared 9-decenoic acid was added to each tube. Immediately, the entire contents of 2 tubes were filtered through a filtration apparatus and rinsed with sterile diluent. The remaining 2 tubes were held at room temperature for 30 minutes and then the entire contents were filtered using the same procedure. The filters were aseptically transferred to TSA plates and incubated for 48 hours at 37±2° C. and visually examined for growth.
(§13) This control was inoculated, subcultured and incubated as in the test procedure.

[6] = system: Escherichia coli 0157:H7, ATCC 43895; test: Time-Kill Procedure (ASTM), rate of kill; format: cell-based; conditions: all concentrations (0.01, 0.05 and 0.1%), after 10 minutes
Description: as §5, §6, §7, §8, §9, §10, §11, §12, §13

[7] = system: Candida albicans, ATCC 10231; test: Time-Kill Procedure (ASTM), rate of kill; format: cell-based; conditions: all concentrations (0.01, 0.05 and 0.1%), after 10 minutes
Description: as §5, §6, §7, §8, §9, §10, §11, §12, §13

[8] = system: Pediococcus acidolactici ATCC 8042; test: Growth inhibition in MRS medium at various pH levels (OD600); format: cell-based, Pediococcus acidilactici; conditions: 0.05% w/v (as 9-DA)
Description: (§14) Efficacy of potassium salt of 9-DA were tested at various pH levels against the following: Bacillus cereus ATCC 14579, Pediococcus acidolactici ATCC 8042, Pseudomonas straminea ATCC 33636, and Lactobacillus casei ATCC 334. Stock cultures of each organism were transferred into MRS liquid medium. MRS medium (Difco 288130) was purchased from Becton, Dickinson and Company, Sparks, Md. The efficacy of the potassium salt of 9-DA (K-9-DA) was tested at different concentrations and pH levels, including 6.75 (unadjusted), 7.5, and 8.5. The selected organisms were incubated overnight in 5 ml of MRS medium at 35° C. and 250 rpm. MRS media with K-9-DA was prepared, along with a control of straight media (no antimicrobial added). The antimicrobial agent was added by weight/volume percent to the media. The purity, 99% for K-9-DA, was taken into account. The pH adjustments to 7.5 and 8.5 were done with 50% potassium hydroxide. Filter sterilization was used instead of autoclaving to prevent adverse chemical reactions at higher pH and temperature. The target for initial cell density was 10^5 to 10^6 cfu/ml. According to the McFarland standard, 0.01 OD600 is equivalent to approximately 10^8 cfu/ml. To achieve the proper dilution, 30 μl of overnight culture diluted to 0.01 OD600 was added to the 3 ml of media in each tube. The tubes were incubated at 35° C. with the exception of Pseudomonas strains which were incubated at 30° C. Treatments were all done in duplicate. All strains were shaken at 250 rpm, with the exception of Lactobacillus (because it is anaerobic). OD600 readings were taken at 0, 19, 25.5, 42.5 and 49 hours.
“Percent reduction in growth vs. control” was defined as (1−abs. of treatment/abs. of control)×100.

[9] = system: Lactobacillus casei ATCC 334; test: as above; format: cell-based; conditions: 0.075% w/v (as 9-DA)
Description: as §14, with “The tubes were incubated at 35° C. with the exception of Pseudomonas strains which were incubated at 30° C. Treatments were all done in duplicate. All strains were shaken at 250 rpm, with the exception of Lactobacillus (because it is anaerobic).” left out, “hours. […]” for “hours.”

[10] = system: microorganisms of Table 15 with the exception of Bacillus licheniformis; test: Growth inhibition in MRS medium (OD600), summary over organisms; format: cell-based; conditions: all concentrations tested
Description: (§15) Efficacy of the potassium salt of 9-DA was determined through incubation of the following organisms in the presence of varying concentrations of the potassium salt: Pseudomonas straminea ATCC 33636, Bacillus subtilis ATCC 6051, Bacillus licheniformis ATCC 14580, Bacillus cereus ATCC 14579, Pediococcus acidilactici ATCC 8042, and Lactobacillus casei ATCC 334.
(§16) Stock cultures of each organism were transferred into MRS liquid medium. MRS medium (Difco 288130) was purchased from Becton, Dickinson and Company, Sparks, Md.
(§17) The efficacy of different levels of the potassium salt of 9-DA was tested depending on the organism to inhibit the growth of various microorganisms indicated above.
(§18) The selected organisms were incubated overnight in 5 ml of MRS medium at 35° C. and 250 rpm. MRS media with K-9-DA was prepared, along with a control of straight media (no antimicrobial added). The concentrated antimicrobial agents were diluted with the appropriate media required for the respective microorganisms, to reach the required concentrations for the studies as indicated below. The antimicrobial agents were added by weight/volume percent on an ‘as 9-DA’ basis to the media. The purity of the antimicrobial agent (99% for K-9-DA) was taken into account. The pH of the medium was not adjusted. The target for initial cell density was 10^5 to 10^6 cfu/ml. […] OD600 readings were taken at 0, 4, 17, 23 and 47 hours. […]

[11] = system: Bacillus licheniformis ATCC 14580; test: Growth inhibition in MRS medium (OD600); format: cell-based; conditions: 0.075% w/v 9-DA from K9-DA, pH not adjusted, listed as potassium 9-DA
Description: as §15, §16, §17, §18

C=CCCCCCCCC(=O)OC [Methyl ester of 9-decenoic acid, methyl ester of 9-decenoic acid]
MIC ([1]; Mueller-Hinton Broth): 0.1250%
MBC ([1]; no-growth tubes subcultured on TSA): 0.1250%
time up to which growth of the culture was significantly inhibited [2]: 4 days
Percentage coverage of agar surface ([2]; 4 days): 60%
Percentage coverage of agar surface ([2]; 7 days): 95%
Percentage coverage of agar surface ([2]; 16 days): 100%
Percentage coverage of agar surface ([2]; 24 days): 100%
Percentage coverage of agar surface ([2]; 31 days): 100%
time up to which growth of the culture was significantly inhibited [3]: 16 days
Percentage coverage of agar surface ([3]; 4 days): 0%
Percentage coverage of agar surface ([3]; 7 days): 2.5%
Percentage coverage of agar surface ([3]; 16 days): 10%
Percentage coverage of agar surface ([3]; 24 days): 50%
Percentage coverage of agar surface ([3]; 31 days): 75%
time up to which growth of the culture was significantly inhibited [4]: 4 days
Percentage coverage of agar surface ([4]; 4 days): 10%
Percentage coverage of agar surface ([4]; 7 days): 50%
Percentage coverage of agar surface ([4]; 16 days): 50%
Percentage coverage of agar surface ([4]; 24 days): 50%
Percentage coverage of agar surface ([4]; 31 days): 50%
log reduction in time kill test [5]: < 1 log
log reduction in time kill test [6]: < 1 log
log reduction in time kill test [7]: < 1 log

C=CCCCCCCCC(=O)O.[K] [K9-DA, Potassium-9 Decenoic Acid]
% reduction in growth vs. control ([8]; Non-pH adjusted (6.75)): 90.6%
% reduction in growth vs. control ([8]; pH 7.5): 93.2%
% reduction in growth vs. control ([8]; pH 8.5): 95.6%
% reduction in growth vs. control ([9]; Non-pH adjusted (6.75)): 88.4%
% reduction in growth vs. control ([9]; pH 7.5): 91.7%
reduction in growth when compared to controls [10]: ≥ 95%
% reduction in growth vs. control [11]: 88.63%
